Legend:
[1] = Liquid, Ebulliometric method (Recirculating still)
[2] = refractive index (Na D-line) (dimensionless); settings: Liquid, Standard Abbe refractometry
[3] = refractive index (Na D-line) (dimensionless); xn = mol fraction of the nth substance listed; settings: 293.15 K, 93 kPa, Liquid, Standard Abbe refractometry

CC(=O)OC(C)C [1-methylethyl ethanoate]
Settings	vapor or sublimation pressure [kPa]
[1], 358.92 K	93.13

[2]
Settings	refractive index
293.15 K, 93 kPa	1.3774
298.15 K, 101.33 kPa	1.3748

CC(=O)OC(C)C [1-methylethyl ethanoate] + COC(=O)OC
[3]
Settings	refractive index
x1 = 0.0423	1.3693
x1 = 0.0899	1.3699
x1 = 0.183	1.371
x1 = 0.2918	1.3721
x1 = 0.4235	1.3733
x1 = 0.5026	1.374
x1 = 0.5726	1.3746
x1 = 0.6814	1.3754
x1 = 0.7285	1.3758
x1 = 0.7616	1.3759
x1 = 0.7915	1.3761
x1 = 0.8849	1.3767
x1 = 0.9449	1.3771
x1 = 1	1.3774

CC(=O)OCCC(C)C [3-methylbutyl ethanoate]
Settings	vapor or sublimation pressure [kPa]
[1], 412.31 K	93.13

[2]
Settings	refractive index
293.15 K, 93 kPa	1.4007
298.15 K, 101.33 kPa	1.39842

CC(=O)OCCC(C)C [3-methylbutyl ethanoate] + COC(=O)OC
[3]
Settings	refractive index
x1 = 0.0369	1.3706
x1 = 0.0721	1.3724
x1 = 0.2004	1.378
x1 = 0.2231	1.3788
x1 = 0.3091	1.3821
x1 = 0.4027	1.3854
x1 = 0.4943	1.3883
x1 = 0.6064	1.3915
x1 = 0.7185	1.3945
x1 = 0.8312	1.3972
x1 = 0.9243	1.3992
x1 = 1	1.4007

CCCCOC(C)=O [butyl ethanoate]
Settings	vapor or sublimation pressure [kPa]
[1], 396.21 K	93.13

[2]
Settings	refractive index
293.15 K, 93 kPa	1.3943
298.15 K, 101.33 kPa	1.39175

CCCCOC(C)=O [butyl ethanoate] + COC(=O)OC
[3]
Settings	refractive index
x1 = 0.0941	1.3721
x1 = 0.1143	1.3728
x1 = 0.1628	1.3743
x1 = 0.2495	1.377
x1 = 0.3203	1.379
x1 = 0.4375	1.3821
x1 = 0.5357	1.3846
x1 = 0.6438	1.3871
x1 = 0.7325	1.389
x1 = 0.7418	1.3893
x1 = 0.8819	1.3921
x1 = 0.9073	1.3925
x1 = 1	1.3943

COC(=O)OC [dimethyl carbonate] + CC(=O)OC(C)C
Settings	refractive index
[3], x2 = 0	1.3688

COC(=O)OC [dimethyl carbonate] + CC(=O)OCCC(C)C
Settings	refractive index
[3], x2 = 0	1.3688

COC(=O)OC [dimethyl carbonate] + CCCCOC(C)=O
Settings	refractive index
[3], x2 = 0	1.3688

COC(=O)OC [dimethyl carbonate] + CCCOC(C)=O
Settings	refractive index
[3], x2 = 0	1.3688

COC(=O)OC [dimethyl carbonate] + CCOC(C)=O
[3]
Settings	refractive index
x2 = 0	1.3688
x2 = 0.0861	1.3693
x2 = 0.1154	1.3694
x2 = 0.2095	1.3698
x2 = 0.3017	1.3702
x2 = 0.3685	1.3704
x2 = 0.3952	1.3705
x2 = 0.4303	1.3707
x2 = 0.5094	1.371
x2 = 0.5642	1.3712
x2 = 0.6047	1.3713
x2 = 0.6964	1.3716
x2 = 0.8026	1.3719
x2 = 0.8912	1.3722
x2 = 0.9375	1.3723

COC(=O)OC [dimethyl carbonate] + COC(C)=O
Settings	refractive index
[3], x2 = 0	1.3688

CCOC(C)=O [ethyl acetate] + COC(=O)OC
Settings	refractive index
[3], x1 = 1	1.3724

COC(C)=O [methyl ethanoate] + COC(=O)OC
[3]
Settings	refractive index
x1 = 0.0985	1.3682
x1 = 0.1427	1.3679
x1 = 0.2469	1.3673
x1 = 0.3243	1.3668
x1 = 0.3794	1.3665
x1 = 0.445	1.366
x1 = 0.5283	1.3654
x1 = 0.6548	1.3645
x1 = 0.7403	1.3639
x1 = 0.7976	1.3634
x1 = 0.8939	1.3625
x1 = 0.9548	1.362
x1 = 1	1.3615

CCCOC(C)=O [propyl ethanoate] + COC(=O)OC
[3]
Settings	refractive index
x1 = 0.0846	1.3704
x1 = 0.1341	1.3714
x1 = 0.1705	1.372
x1 = 0.223	1.3731
x1 = 0.2896	1.3741
x1 = 0.3877	1.3757
x1 = 0.4374	1.3765
x1 = 0.4989	1.3775
x1 = 0.562	1.3784
x1 = 0.669	1.38
x1 = 0.7756	1.3815
x1 = 0.891	1.383
x1 = 0.9528	1.3838
x1 = 1	1.3843

Reference: the NIST ThermoML archive (doi:10.1021/acs.jced.7b00704)
